pIC50: −log10 of the molar value.
Molecular target: HSP90 (Homo sapiens, UniProt P07900)
Test: HSP90 inhibition (HSP90 IC50)
Assay type: biochemical

| pIC50 | Structure (SMILES) |
| --- | --- |
| > 6.30 | COc1cc(F)c(CNC(=O)c2ccc(N3[C@@H]4CC[C@H]3C[C@@H](NC(=O)c3cccc(OC)c3C)C4)nc2)c(F)c1 [N-{[2,6-difluoro-4-(methyloxy)phenyl]methyl}-6-[3-endo-({[2-methyl-3-(methyloxy)phenyl]carbonyl}amino)-8-azabicyclo[3.2.1]oct-8-yl]pyridine-3-carboxamide] |
| 5.00 to 5.70 | COc1cccc(C(=O)N[C@H]2C[C@H]3CC[C@@H](C2)N3c2ccc(C(=O)Nc3cccc(C)c3)cn2)c1C [6-[3-endo-({[2-methyl-3-(methyloxy)phenyl]carbonyl}amino)-8-azabicyclo[3.2.1]oct-8-yl]-N-(3-methylphenyl)pyridine-3-carboxamide] |
| 6.00 to 6.30 | COc1cccc(C(=O)N[C@H]2C[C@H]3CC[C@@H](C2)N3c2ccc(C(=O)NC3CCCCC3)cn2)c1C [N-cyclohexyl-6-[3-endo-({[2-methyl-3-(methyloxy)phenyl]carbonyl}amino)-8-azabicyclo[3.2.1]oct-8-yl]pyridine-3-carboxamide] |
| > 6.30 | NC(=O)c1ccc(N2[C@@H]3CC[C@H]2C[C@@H](NC(=O)c2ccc(C(N)=O)c(NC4CCC4)c2)C3)nc1 [N4-{8-[5-(aminocarbonyl)pyridin-2-yl]-8-azabicyclo[3.2.1]oct-3-endo-yl}-2-(cyclobutylamino)benzene-1,4-dicarboxamide] |
| 5.70 to 6.00 | NC(=O)c1ccc(N2[C@@H]3CC[C@H]2C[C@@H](NC(=O)c2ccc(C(N)=O)c(OCCN4CCOCC4)c2)C3)nc1 [N4-{8-[5-(aminocarbonyl)pyridin-2-yl]-8-azabicyclo[3.2.1]oct-3-endo-yl}-2-[(2-morpholin-4-ylethyl)oxybenzene-1,4-dicarboxylate] |
| 6.00 to 6.30 | COc1cccc(C(=O)N[C@H]2C[C@H]3CC[C@@H](C2)N3c2ccc(C(=O)NCC3CC3)cn2)c1C [N-(cyclopropylmethyl)-6-[3-endo-({[2-methyl-3-(methyloxy)phenyl]carbonyl}amino)-8-azabicyclo[3.2.1]oct-8-yl]pyridine-3-carboxamide] |
| 5.70 to 6.00 | COc1cccc(C(=O)N[C@H]2C[C@H]3CC[C@@H](C2)N3c2ccc(C(=O)NCCN(C)C)cn2)c1C [N-[2-(dimethylamino)ethyl]-6-[3-endo-({[2-methyl-3-(methyloxy)phenyl]carbonyl}amino)-8-azabicyclo[3.2.1]oct-8-yl]pyridine-3-carboxamide] |
| 6.00 to 6.30 | CCOc1ccccc1CNC(=O)c1ccc(N2[C@@H]3CC[C@H]2C[C@@H](NC(=O)c2cccc(OC)c2C)C3)nc1 [N-{[2-(ethyloxy)phenyl]methyl}-6-[3-endo-({[2-methyl-3-(methyloxy)phenyl]carbonyl}amino)-8-azabicyclo[3.2.1]oct-8-yl]pyridine-3-carboxamide] |
| > 6.30 | NC(=O)c1ccc(C(=O)N[C@H]2C[C@H]3CC[C@@H](C2)N3c2ccc(C(=O)C3CC3)cn2)cc1NCC(F)(F)C(F)(F)F [N4-{8-[5-(cyclopropylcarbonyl)pyridln-2-yl]-8-azabicyclo[3.2.1]oct-3-endo-yl}-2-[(2,2,3,3,3-pentafluoropropyl)amino]benzene-1,4-dicarboxamide] |
| 6.00 to 6.30 | CSc1cccc(C(=O)NC2CC3CCC(C2)N3c2ccc(C(=O)N[C@@H](C)c3ccc(N4CCN(C)CC4)cc3)cn2)c1C (stereo partly drawn) [6-[3-endo-({[2-methyl-3-(methylthio)phenyl]carbonyl}amino)-8-azabicyclo[3.2.1]oct-8-yl]-N-{(1S)-1-[4-(4-methylpiperazin-1-yl)phenyl]ethyl}pyridine-3-carboxamide] |

Second part, the compound before the results:

| Structure (SMILES) | pIC50 |
| --- | --- |
| CCC(CC)Nc1cc(C(=O)N[C@H]2C[C@H]3CC[C@@H](C2)N3c2ccc(C(=O)C3CC3)cn2)c(Cl)cc1C(N)=O [2-chloro-N-{8-[5-(cyclopropylcarbonyl)pyridin-2-yl]-8-azabicyclo[3.2.1]oct-3-endo-yl}-5-[(1-ethylpropyl)amino]benzene-1,4-dicarboxamide] | > 6.30 |
| Cc1cc(C(N)=O)c(NC(C2CC2)C2CC2)cc1C(=O)NC1CC2CCC(C1)N2c1ccc(C(=O)C2CC2)cn1 (stereo not drawn) [N-{8-[5-(cyclopropylcarbonyl)pyridin-2-yl]-8-azabicyclo[3.2.1]oct-3-endo-yl}-5-[(dicyclopropylmethyl)amino]-2-methylbenzene-1,4-dicarboxamide] | > 6.30 |
| Cc1cc(C(=O)NC2CC3CCC(C2)N3c2ccc(C(=O)N[C@H]3CCN(C)C3)cn2)c(C)cc1C(N)=O (stereo partly drawn) [2,5-dimethyl-N-{8-[5-({[(3S)-1-methylpyrrolidin-3-yl]amino}carbonyl)pyridin-2-yl]-8-azabicyclo[3.2.1]oct-3-endo-yl}benzene-1,4-dicarboxamide] | > 6.30 |
| COc1cccc(C(=O)N[C@H]2C[C@H]3CC[C@@H](C2)N3c2ccc(C(N)=O)cn2)c1CCCCN(C)C [6-(3-endo[({2-[4-(dimethylamino)butyl]-3-(methyloxy)phenyl}carbonyl)amino]-8-azabicyclo[3.2.1]oct-8-yl}pyridine-3-carboxamide] | 5.70 to 6.00 |
| Cc1cc(OC(N)=O)ccc1C(=O)N[C@H]1C[C@H]2CC[C@@H](C1)N2c1ccc(C(=O)NCc2ccccc2)cn1 [3-methyl-4-({[8-(5-{[(phenylmethyl)amino]carbonyl}pyridin-2-yl)-8-azabicyclo[3.2.1]oct-3-endo-yl]amino}carbonyl)phenyl carbamate] | 5.00 to 5.70 |
| COc1ccc(C(=O)N[C@H]2C[C@H]3CC[C@@H](C2)N3c2ccc(C(=O)NCc3ccccc3)cn2)c(C)c1OC [6-[3-endo-({[2-methyl-3,4-bis(methyloxy)phenyl]carbonyl}amino)-8-azabicyclo[3.2.1]oct-8-yl]-N-(phenylmethyl)pyridine-3-carboxamide] | 5.00 to 5.70 |
| COc1cccc(C(=O)N[C@H]2C[C@H]3CC[C@@H](C2)N3c2ccc(C(=O)NCc3ccc(C)cc3)cn2)c1C [6-[3-endo-({(2-methyl-3-(methyloxy)phenyl]carbonyl}amino)-8-azabicyclo[3.2.1]oct-8-yl]-N-[(4-methylphenyl)methyl]pyridine-3-carboxamide] | > 6.30 |
| NC(=O)c1ccc(C(=O)N[C@H]2C[C@H]3CC[C@@H](C2)N3c2ccc(C(=O)CCN3CCN(c4ccccc4)CC3)cn2)cc1NCC1CC1 [2-[(cyclopropylmethyl)amino]-N4-(8-{5-[3-(4-phenylpiperazin-1-yl)propanoyl]pyridin-2-yl}-8-azabicyclo[3.2.1]oct-3-endo-yl)benzene-1,4-dicarboxamide] | 6.00 to 6.30 |
| CCC(CC)Nc1cc(C(=O)NC2CC3CCC(C2)N3c2ccc(C(=O)N[C@@H]3CCN(CC)C3)cn2)ccc1C(N)=O (stereo partly drawn) [2-[(1-ethylpropyl)amino]-N4-{8-[5-({[(3R)-1-ethylpyrrolidin-3-yl]amino}carbonyl)pyridin-2-yl]-8-azabicyclo[3.2.1]oct-3-endo-yl}benzene-1,4-dicarboxamide] | > 6.30 |
| NC(=O)c1ccc(C(=O)N[C@H]2C[C@H]3CC[C@@H](C2)N3c2ccc(C(=O)C(F)(F)F)cn2)cc1NCC1CC1 [2-[(cyclopropylmethyl)amino]-N4-{8-[5-(trifluoroacetyl)pyridin-2-yl]-8-azabicyclo[3.2.1]oct-3-endo-yl}benzene-1,4-dicarboxamide] | 5.00 to 5.70 |
| CCC(C)Oc1cc(C(=O)N[C@H]2C[C@H]3CC[C@@H](C2)N3c2ccc(C(=O)C3CC3)cn2)c(C)cc1C(N)=O (stereo partly drawn) | > 6.30 |
